In patent publication US10174016B2 (BAYER AKTIENGESELLSCHAFT, priority 2014, dated 2019):
Where two headings read alike, the source gives them in different places.

How the values were obtained:
[1] = target: human P2X2/3 receptor (Homo sapiens (Human), UniProt P56373+Q9UBL9); test: Intracellular calcium measurement (FLIPR, Fluo-4) of antagonist activity at human P2X2/3 receptors; assay type: cell-based; settings: human P2X2/3, FLIPR calcium assay, agonist α,β-Me-ATP; read-out: hP2X2/3 IC50
Experimental: (§1) Intracellular Calcium Measurement to Assess Antagonist Activity at Human P2X3 and Human P2X2/3 Receptors
(§2) A fluorescent imaging plate reader (FLEX/FLIPR station; Molecular Devices) was used to monitor intracellular calcium levels using the calcium-chelating dye Fluo-4 (Molecular Probes). […] Cells expressing purinergic receptors P2X3 (human) or P2X2/3 (human) were plated at a density of 15,000 cells/well in collagen-coated 384-well plates approximately 20 hours before beginning the assay. […] The test compound was added in a volume of 5 μl and allowed to incubate for 30 min at 37° C. The final assay DMSO concentration is 1%. The agonist, α,β-Me-ATP, was added in a volume of 20 μl at a concentration representing the EC80 value. The fluorescence was measured for an interval of 90 sec at 2 sec intervals and analyzed based on the increase in peak relative fluorescence units (RFU) compared to the basal fluorescence. Peak fluorescence was used to determine the response to agonist obtained at each concentration of test compound by the following equation: % Response=100*(RFU(test compound)−RFU(control)/RFU(DMSO)−RFU(control))
(§3) The Examples were tested in triplicates per plate and mean values were plotted in Excel XLFit to determine IC50 values at the human P2X3 and human P2X2/3 receptors, percentage of maximal inhibition and the Hill coefficients.

[2] = target: human P2X3 receptor (Homo sapiens (Human), UniProt P56373); test: Intracellular calcium measurement (FLIPR, Fluo-4) of antagonist activity at human P2X3 receptors; assay type: cell-based; settings: read-out: hP2X3 IC50
Sequence of human P2X3 receptor (P56373 whole entry): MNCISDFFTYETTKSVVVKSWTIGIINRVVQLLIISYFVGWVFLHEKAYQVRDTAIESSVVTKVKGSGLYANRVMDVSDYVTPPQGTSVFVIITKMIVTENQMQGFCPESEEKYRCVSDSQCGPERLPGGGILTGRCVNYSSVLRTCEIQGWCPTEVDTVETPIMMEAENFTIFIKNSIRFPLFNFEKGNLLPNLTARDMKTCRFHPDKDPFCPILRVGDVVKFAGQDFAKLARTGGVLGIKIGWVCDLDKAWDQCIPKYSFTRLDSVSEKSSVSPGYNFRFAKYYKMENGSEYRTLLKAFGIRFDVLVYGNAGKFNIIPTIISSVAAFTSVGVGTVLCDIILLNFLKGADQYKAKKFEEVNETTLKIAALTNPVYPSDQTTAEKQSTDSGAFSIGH
Experimental: as §1, §2, §3

[3] = human P2X3, FLIPR calcium assay, agonist α,β-Me-ATP

Sequence of human P2X2/3 receptor (P56373 whole entry): as above
Sequence of human P2X2/3 receptor (Q9UBL9 whole entry): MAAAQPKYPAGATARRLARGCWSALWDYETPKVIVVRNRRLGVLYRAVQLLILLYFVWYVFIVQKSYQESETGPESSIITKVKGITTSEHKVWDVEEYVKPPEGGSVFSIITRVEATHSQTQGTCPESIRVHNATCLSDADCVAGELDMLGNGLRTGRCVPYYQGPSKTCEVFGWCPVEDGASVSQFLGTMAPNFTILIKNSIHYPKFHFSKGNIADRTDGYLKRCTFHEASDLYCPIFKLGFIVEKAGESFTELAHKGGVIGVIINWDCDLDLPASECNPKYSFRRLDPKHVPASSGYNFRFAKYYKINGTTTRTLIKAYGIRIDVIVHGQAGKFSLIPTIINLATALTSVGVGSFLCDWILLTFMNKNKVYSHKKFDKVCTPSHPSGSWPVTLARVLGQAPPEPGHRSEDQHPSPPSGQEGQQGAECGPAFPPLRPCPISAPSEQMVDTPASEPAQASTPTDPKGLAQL

Row | Compound | IC50 [1] [nM] | IC50 [2, 3] [nM] | IC50 [2] [nM]
1 | Cc1cnc(-c2cc(OCC3CC3)cc(C(=O)NC(C)c3ncc(F)cc3Cl)c2)s1 (racemic) [Example 5, N-[1-(3-Chloro-5-fluoropyridin-2-yl)ethyl]-3-(cyclopropylmethoxy)-5-(5-methyl-1,3-thiazol-2-yl)benzamide] | 346 | 16 | 
2 | Cc1cnc(-c2cc(OCC3CC3)cc(C(=O)NC(C)c3ncc(Cl)cc3F)c2)s1 (racemic) [Example 6, N-[1-(5-Chloro-3-fluoropyridin-2-yl)ethyl]-3-(cyclopropylmethoxy)-5-(5-methyl-1,3-thiazol-2-yl)benzamide] | 38 | 4 | 
3 | Cc1cnc(-c2cc(OC3COC3)cc(C(=O)NC(C)c3nnc(C(F)(F)F)s3)c2)s1 (single isomer, unassigned) [Example 193, 3-(5-Methyl-1,3-thiazol-2-yl)-5-(oxetan-3-yloxy)-N-{1-[5-(trifluoromethyl)-1,3,4-thiadiazol-2-yl]ethyl}benzamide] | ≥ 10000 | 2710 | 
4 | Cc1cnc(-c2cc(OC3COC3)cc(C(=O)NC(C)c3nnc(C(F)(F)F)s3)c2)s1 (single isomer, unassigned) [Example 194, 3-(5-Methyl-1,3-thiazol-2-yl)-5-(oxetan-3-yloxy)-N-{1-[5-(trifluoromethyl)-1,3,4-thiadiazol-2-yl]ethyl}benzamide] | 579 | 46 | 
5 | Cc1cnc(-c2cc(OC3CCNC(C(F)(F)F)C3)cc(C(=O)N[C@H](C)c3cnc(C(F)(F)F)nc3)c2)s1 (single isomer, unassigned) [Example 207] | 87 | 5 | 
6 | Cc1cnc(-c2cc(OC3CCNC(C(F)(F)F)C3)cc(C(=O)N[C@H](C)c3cnc(C(F)(F)F)nc3)c2)s1 (single isomer, unassigned) [Example 208] | 89 | 2 | 
7 | Cc1cnc(-c2cc(OC[C@]3(F)CCCNC3)cc(C(=O)NC(C)c3cnc(C(F)(F)F)nc3)c2)s1 (single isomer, unassigned) [Example 355] | 956 | 9 | 
8 | Cc1cnc(-c2cc(OCC3CCOC3)cc(C(=O)NC(C)c3ncc(F)cc3Cl)c2)s1 (stereo in doubt) [Example 69, N-[1-(3-Chloro-5-fluoropyridin-2-yl)ethyl]-3-(5-methyl-1,3-thiazol-2-yl)-5-[(3R)-tetrahydrofuran-3-ylmethoxy]benzamide] | 937 | 15 | 
9 | Cc1cnc(-c2cc(OCC3CN(C(C)C)CCO3)cc(C(=O)N[C@H](C)c3cnc(C(F)(F)F)nc3)c2)s1 (stereo in doubt) [Example 382, 3-(5-methyl-1,3-thiazol-2-yl)-5-{[(2R)-4-(propan-2-yl)morpholin-2-yl]methoxy}-N-{(1R)-1-[2-(trifluoromethyl)pyrimidin-5-yl]ethyl}benzamide] | 432 | 13 | 
10 | Cc1ccc(CNC(=O)c2cc(OCC3CC3)cc(-c3ncc(C)s3)c2)nn1 [Example 2, 3-(Cyclopropylmethoxy)-N-[(6-methylpyridazin-3-yl)methyl]-5-(5-methyl-1,3-thiazol-2-yl)benzamide] | 251 | 19 | 
11 | Cc1cnc(CNC(=O)c2cc(OCC3CC3)cc(-c3ncc(C)s3)c2)cn1 [Example 3, 3-(Cyclopropylmethoxy)-N-[(5-methylpyrazin-2-yl)methyl]-5-(5-methyl-1,3-thiazol-2-yl)benzamide] | 1110 | 26 | 
12 | Cc1cnc([C@@H](C)NC(=O)c2cc(OCC3CC3)cc(-c3ncc(C)s3)c2)cn1 [Example 4, 3-(Cyclopropylmethoxy)-N-[(1R)-1-(5-methylpyrazin-2-yl)ethyl]-5-(5-methyl-1,3-thiazol-2-yl)benzamide] | 98 | 9 | 
13 | Cc1cnc(-c2cc(OCC3CC3)cc(C(=O)N[C@H](C)c3nnc(C)s3)c2)s1 [Example 7, 3-(Cyclopropylmethoxy)-N-[(1R)-1-(5-methyl-1,3,4-thiadiazol-2-yl)ethyl]-5-(5-methyl-1,3-thiazol-2-yl)benzamide] | 106 | 8 | 
14 | Cc1ccc([C@@H](C)NC(=O)c2cc(OCC3CC3)cc(-c3ncc(C)s3)c2)nn1 [Example 8, 3-(Cyclopropylmethoxy)-N-[(1R)-1-(6-methylpyridazin-3-yl)ethyl]-5-(5-methyl-1,3-thiazol-2-yl)benzamide] | 90 | 3 | 
15 | Cc1cnc(-c2cc(OCC3CC3)cc(C(=O)N[C@H](C)c3ccc(C(F)(F)F)nn3)c2)s1 [Example 9, 3-(Cyclopropylmethoxy)-5-(5-methyl-1,3-thiazol-2-yl)-N-{(1R)-1-[6-(trifluoromethyl)pyridazin-3-yl]ethyl}benzamide] | 145 | 7 | 
16 | Cc1ncc([C@@H](C)NC(=O)c2cc(OCC3CC3)cc(-c3ncc(C)s3)c2)cn1 [Example 10, 3-(Cyclopropylmethoxy)-N-[(1R)-1-(2-methylpyrimidin-5-yl)ethyl]-5-(5-methyl-1,3-thiazol-2-yl)benzamide] | 185 | 7 | 
17 | Cc1cnc(CNC(=O)c2cc(O[C@@H]3CCOC3)cc(-c3ncc(C)s3)c2)cn1 [Example 12, N-[(5-methylpyrazin-2-yl)methyl]-3-(5-methyl-1,3-thiazol-2-yl)-5-[(3R)-tetrahydrofuran-3-yloxy]benzamide] | ≥ 10000 |  | 283
18 | C#CCOc1cc(C(=O)NCc2ncc(Cl)cc2F)cc(-c2ncc(C)s2)c1 [Example 32, N-[(5-Chloro-3-fluoropyridin-2-yl)methyl]-3-(5-methyl-1,3-thiazol-2-yl)-5-(prop-2-yn-1-yloxy)benzamide] |  | 24 | 
19 | C#CCOc1cc(C(=O)N[C@H](C)c2ccc(C)nn2)cc(-c2ncc(C)s2)c1 [Example 37, N-[(1R)-1-(6-Methylpyridazin-3-yl)ethyl]-3-(5-methyl-1,3-thiazol-2-yl)-5-(prop-2-yn-1-yloxy)benzamide] | 1180 |  | 
20 | Cc1ccc([C@@H](C)NC(=O)c2cc(OC3COC3)cc(-c3ncc(C)s3)c2)cn1 [Example 51, N-[(1R)-1-(6-methylpyridin-3-yl)ethyl]-3-(5-methyl-1,3-thiazol-2-yl)-5-(oxetan-3-yloxy)benzamide] | 1390 |  | 
21 | Cc1ccc(CNC(=O)c2cc(OC[C@@H]3CCCO3)cc(-c3ncc(C)s3)c2)nn1 [Example 54, N-[(6-Methylpyridazin-3-yl)methyl]-3-(5-methyl-1,3-thiazol-2-yl)-5-[(2S)-tetrahydrofuran-2-ylmethoxy]benzamide] | ≥ 10000 |  | 
22 | Cc1cnc(-c2cc(OC3CCOCC3)cc(C(=O)N[C@H](C)c3ccc(C(F)(F)F)nn3)c2)s1 [Example 89, 3-(5-Methyl-1,3-thiazol-2-yl)-5-(tetrahydro-2H-pyran-4-yloxy)-N-{(1R)-1-[6-(trifluoromethyl)pyridazin-3-yl]ethyl}benzamide] | 199 |  | 
23 | Cc1cc(Oc2cc(C(=O)N[C@H](C)c3ccc(C(F)(F)F)nn3)cc(-c3ncc(C)s3)c2)ccn1 [Example 105, 3-[(2-Methylpyridin-4-yl)oxy]-5-(5-methyl-1,3-thiazol-2-yl)-N-{(1R)-1-[6-(trifluoromethyl)pyridazin-3-yl]ethyl}benzamide] | 39 |  | 
24 | Cc1cnc(-c2cc(OC3CCNCC3)cc(C(=O)N[C@H](C)c3cnc(C(F)(F)F)nc3)c2)s1 [Example 138, 3-(5-Methyl-1,3-thiazol-2-yl)-5-(piperidin-4-yloxy)-N-{(1R)-1-[2-(trifluoromethyl)pyrimidin-5-yl]ethyl}benzamide] | 559 |  | 
25 | Cc1cnc(-c2cc(OC3CCOCC3)cc(C(=O)N[C@H](C)c3cnc(C(F)F)nc3)c2)s1 [Example 154, N-{(1R)-1-[2-(difluoromethyl)pyrimidin-5-yl]ethyl}-3-(5-methyl-1,3-thiazol-2-yl)-5-(tetrahydro-2H-pyran-4-yloxy)benzamide] | 130 |  | 
26 | Cc1cnc(-c2cc(OC3(C)COC3)cc(C(=O)N[C@H](C)c3cnc(C(F)(F)F)nc3)c2)s1 [Example 156, 3-[(3-methyloxetan-3-yl)oxy]-5-(5-methyl-1,3-thiazol-2-yl)-N-{(1R)-1-[2-(trifluoromethyl)pyrimidin-5-yl]ethyl}benzamide] | 163 |  | 
27 | Cc1cnc(-c2cc(OCCn3cncn3)cc(C(=O)N[C@H](C)c3cnc(C(F)(F)F)nc3)c2)s1 [Example 159, 3-(5-methyl-1,3-thiazol-2-yl)-5-[2-(1H-1,2,4-triazol-1-yl)ethoxy]-N-{(1R)-1-[2-(trifluoromethyl)pyrimidin-5-yl]ethyl}benzamide] | 1230 |  | 
28 | Cc1cnc(-c2cc(OC[C@H]3COCCO3)cc(C(=O)N[C@H](C)c3ccc(C(F)(F)F)nc3)c2)s1 [Example 177, 3-[(2R)-1,4-dioxan-2-ylmethoxy]-5-(5-methyl-1,3-thiazol-2-yl)-N-{(1R)-1-[6-(trifluoromethyl)pyridin-3-yl]ethyl}benzamide] | 887 |  | 
29 | Cc1cnc(-c2cc(OCC34CNC(CO3)C4)cc(C(=O)N[C@H](C)c3cnc(C(F)(F)F)nc3)c2)s1 (stereo partly drawn) [Example 407, 3-(5-Methyl-1,3-thiazol-2-yl)-5-[2-oxa-5-azabicyclo[2.2.1]hept-1-ylmethoxy]-N-{(1R)-1-[2-(trifluoromethyl)pyrimidin-5-yl]ethyl}benzamide] |  | 15 | 
